Results published in PubChem BioAssay (NCI).
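All cell lines were grown in 96-well plates and treated with compound for 48 hours. TGI: concentration producing complete growth inhibition.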

Legend:
Assay in all cases: NCI-60 cell line screen, 48 h
RPMI-8226 leukemia = test system: RPMI-8226 leukemia
MDA-N = test system: MDA-N
NCI-H522 lung = test system: NCI-H522 lung
TK-10 renal = test system: TK-10 renal
HL-60(TB) leukemia = test system: HL-60(TB) leukemia
K-562 leukemia = test system: K-562 leukemia
EKVX NSCLC = test system: EKVX NSCLC
MDA-MB-435 = test system: MDA-MB-435
OVCAR-3 ovarian = test system: OVCAR-3 ovarian
SN12C renal = test system: SN12C renal
A498 renal = test system: A498 renal
A549 NSCLC = test system: A549 NSCLC
COLO 205 colon = test system: COLO 205 colon
UACC-62 melanoma = test system: UACC-62 melanoma
DU-145 prostate = test system: DU-145 prostate
NCI-H226 lung = test system: NCI-H226 lung
LOX IMVI melanoma = test system: LOX IMVI melanoma
MCF7 breast = test system: MCF7 breast
HOP-92 NSCLC = test system: HOP-92 NSCLC
UACC-257 melanoma = test system: UACC-257 melanoma
SW-620 colon = test system: SW-620 colon
PC-3 prostate = test system: PC-3 prostate
SK-MEL-28 melanoma = test system: SK-MEL-28 melanoma
HOP-62 NSCLC = test system: HOP-62 NSCLC
UO-31 renal = test system: UO-31 renal
ACHN renal = test system: ACHN renal
HCC-2998 colon = test system: HCC-2998 colon
IGROV1 ovarian = test system: IGROV1 ovarian
HCT-15 colon = test system: HCT-15 colon
MALME-3M melanoma = test system: MALME-3M melanoma
MOLT-4 leukemia = test system: MOLT-4 leukemia
HCT-116 colon = test system: HCT-116 colon
M14 melanoma = test system: M14 melanoma
SF-295 CNS = test system: SF-295 CNS
SF-268 CNS = test system: SF-268 CNS
BT-549 breast = test system: BT-549 breast
MDA-MB-231 breast = test system: MDA-MB-231 breast
U251 CNS = test system: U251 CNS
HT29 colon = test system: HT29 colon
NCI-H460 lung = test system: NCI-H460 lung
SK-MEL-5 melanoma = test system: SK-MEL-5 melanoma
T-47D breast = test system: T-47D breast
NCI-H23 lung = test system: NCI-H23 lung
HS 578T breast = test system: HS 578T breast
SNB-19 CNS = test system: SNB-19 CNS
RXF 393 renal = test system: RXF 393 renal
SR leukemia = test system: SR leukemia
CAKI-1 renal = test system: CAKI-1 renal
OVCAR-5 ovarian = test system: OVCAR-5 ovarian
CCRF-CEM leukemia = test system: CCRF-CEM leukemia
SF-539 CNS = test system: SF-539 CNS
SNB-75 CNS = test system: SNB-75 CNS
KM12 colon = test system: KM12 colon
SK-MEL-2 melanoma = test system: SK-MEL-2 melanoma
SK-OV-3 ovarian = test system: SK-OV-3 ovarian
OVCAR-8 ovarian = test system: OVCAR-8 ovarian
NCI/ADR-RES ovarian = test system: NCI/ADR-RES ovarian
OVCAR-4 ovarian = test system: OVCAR-4 ovarian
786-0 renal = test system: 786-0 renal

Measured: TGI

COc1ccc(C2c3cc4c(cc3OC(Nc3ccccc3)C2C)OCO4)cc1 (centres undefined)
59.3 µM: HL-60(TB) leukemia
98.7 µM: EKVX NSCLC
9.18 µM: SR leukemia
> 100 µM: RPMI-8226 leukemia | MDA-N | NCI-H522 lung | TK-10 renal | K-562 leukemia | MDA-MB-435 | OVCAR-3 ovarian | SN12C renal | A498 renal | A549 NSCLC | COLO 205 colon | UACC-62 melanoma | DU-145 prostate | NCI-H226 lung | LOX IMVI melanoma | MCF7 breast | HOP-92 NSCLC | UACC-257 melanoma | SW-620 colon | PC-3 prostate | SK-MEL-28 melanoma | HOP-62 NSCLC | UO-31 renal | ACHN renal | HCC-2998 colon | IGROV1 ovarian | HCT-15 colon | MALME-3M melanoma | MOLT-4 leukemia | HCT-116 colon | M14 melanoma | SF-295 CNS | SF-268 CNS | BT-549 breast | MDA-MB-231 breast | U251 CNS | HT29 colon | NCI-H460 lung | SK-MEL-5 melanoma | T-47D breast | NCI-H23 lung | HS 578T breast | SNB-19 CNS | RXF 393 renal | CAKI-1 renal | OVCAR-5 ovarian | CCRF-CEM leukemia | SF-539 CNS | SNB-75 CNS | KM12 colon | SK-MEL-2 melanoma | SK-OV-3 ovarian

CCn1ncc2c(=O)n3ncn(-c4ccc(Br)cc4)c3nc21
> 100 µM: RPMI-8226 leukemia | MDA-N | NCI-H522 lung | OVCAR-8 ovarian | NCI/ADR-RES ovarian | TK-10 renal | HL-60(TB) leukemia | K-562 leukemia | EKVX NSCLC | MDA-MB-435 | OVCAR-3 ovarian | SN12C renal | A498 renal | A549 NSCLC | COLO 205 colon | UACC-62 melanoma | DU-145 prostate | NCI-H226 lung | MCF7 breast | UACC-257 melanoma | SW-620 colon | PC-3 prostate | SK-MEL-28 melanoma | HOP-62 NSCLC | UO-31 renal | ACHN renal | HCC-2998 colon | IGROV1 ovarian | HCT-15 colon | MALME-3M melanoma | MOLT-4 leukemia | HCT-116 colon | M14 melanoma | SF-295 CNS | SF-268 CNS | BT-549 breast | MDA-MB-231 breast | OVCAR-4 ovarian | U251 CNS | HT29 colon | SK-MEL-5 melanoma | 786-0 renal | T-47D breast | NCI-H23 lung | HS 578T breast | SNB-19 CNS | RXF 393 renal | SR leukemia | OVCAR-5 ovarian | CCRF-CEM leukemia | SNB-75 CNS | KM12 colon | SK-MEL-2 melanoma | SK-OV-3 ovarian
